Data: patent US5830855A, “Lipodepsipeptides as antifungal and fungicidal agents” (priority 1996, dated 1998)
In brackets after ≈: the same amount, converted by molar mass.

How the values were obtained:
[1] = test system: clinical isolates (fungi); experiment: Broth microdilution MIC, fungal isolates overall; assay type: cell-based; conditions: range over all clinical isolates
Text: Most of the fungal strains used in the tests were clinical isolates obtained from the University of Texas Health Science Center at San Antonio Fungus Testing Laboratory (San Antonio, Tex.) and the remaining isolates were ATCC strains.
(§1) Medium: Liquid RPMI 1640 (RPMI) medium with L-glutamine and without sodium bicarbonate (Sigma Chemical Co., R-6504; St. Louis, Mo.) buffered with 0.165M MOPS (34.54 g/liter) was used for in vitro antifungal tests. The medium was adjusted to pH 7.0 with 10M NaOH and filter sterilized.
Lipodepsipeptide Dilutions: All stock drug solution concentrations were at least 10-fold higher than the highest concentration tested. […]
(§2) Preparation of Inoculum Suspensions: On Sabouraud dextose agar (SDA; BBL, Becton and Dickinson and Co., Cockeysville, Md.) all isolates were subcultured at least twice before use to ensure purity and viability. […] The turbidity of each mixed suspension was measured at 530 nm and adjusted to 1×10^6 to 5×10^6 CFU/ml by the NCCLS spectrophotometric method described by National Committee for Clinical Laboratory Standards. […]
(§3) Aspergillus fumigatus and Mucor spp. were grown for 1 wk at 35° C. […] The stock suspensions of all filamentous fungi were measured at 530 nm and adjusted to 85-87% transmission. The concentration (1×10^6 to 5×10^6 CFU/ml) was determined by hemacytometer count or plate count on SDA. […]

Candida albicans = experiment: Broth microdilution MIC; assay type: cell-based; conditions: Table 1 (MICs); Candida albicans, 20 isolates; RPMI pH 7.0, 48 hr; Ktz read at score 2, others at score 0
Procedure: as §1
(§4) Lipodepsipeptide Dilutions: All stock drug solution concentrations were at least 10-fold higher than the highest concentration tested. AmB, ketoconazole, and the test compounds (SR-E, ST-B, and SS-A) were dissolved in sterile distilled water, 0.2N HCl, and 0.001N HCl, respectively. Each stock solution was diluted to 2× the highest concentration of drug tested with RPMI. Two-fold dilutions were made with RPMI medium.
(§5) Preparation of Inoculum Suspensions: On Sabouraud dextose agar (SDA; BBL, Becton and Dickinson and Co., Cockeysville, Md.) all isolates were subcultured at least twice before use to ensure purity and viability. Candida spp. and Saccharomyces cerevisiae were grown for 24 hr at 35° C. Isolates of Cryptococcus neoformans were grown for 48 hr at 35° C. Yeast cells from at least five 1-mm-diameter colonies were suspended in 5 ml of sterile 0.85% saline. The resulting suspension was vortexed for 15 sec. The turbidity of each mixed suspension was measured at 530 nm and adjusted to 1×10^6 to 5×10^6 CFU/ml by the NCCLS spectrophotometric method described by National Committee for Clinical Laboratory Standards. 1992. Reference method for broth dilution antifungal susceptibility testing of yeasts; proposed standard, NCCLS document M27-P (ISBN 1-56238-186-5). NCCLS, Villanova. The final transmission of each yeast suspension ranged from 85-87%.
(§6) Aspergillus fumigatus and Mucor spp. were grown for 1 wk at 35° C. The dermatophytes, Microsporum spp. and Trichophyton spp., were grown for two wk at 30° C. Fungal spores were washed from the plates of all good spore formers (A. fumigatus, Mucor spp., Microsporum canis and Trichophyton spp.) by placing 5 ml of 0.85% saline with 0.2% Tween 80 on the plates and mixing with an inoculating loop. The spore/mycelium suspension was drawn off with a pipette and allowed to settle for at least 5 min. For the poor spore-forming Microsporum audouinii, the procedure was the same except the spore/mycelial suspension was homogenized with a ground glass tissue homogenizer and then allowed to settle for at least 5 min. A small amount of the supernatant was transferred to 5 ml of sterile saline and vortexed. The stock suspensions of all filamentous fungi were measured at 530 nm and adjusted to 85-87% transmission. The concentration (1×10^6 to 5×10^6 CFU/ml) was determined by hemacytometer count or plate count on SDA. All stock suspensions were diluted 1000-fold with RPMI, or 2× the final desired test inocula. The 2× inoculum was diluted 1:1 when the wells were inoculated, and the desired inoculum size was achieved.
(§7) Broth Microdilution Test: Broth microdilution tests were performed using sterile, disposable, multiwell microdilution plates (96 round U-bottom wells) (Falcon 3077; Becton and Dickinson Labware, Lincoln Park, N.J.). The drugs (2× concentrations) were dispensed into the wells of rows number 1 to 10 of the microdilution plates in 100 μl volumes from highest drug concentration to lowest drug concentration. Each well was inoculated with 100 μl of the corresponding 2× concentrated fungal suspension. The wells of row 11 contained the inoculum with drug-free media as a positive growth control and the wells of row 12 contained uninoculated-drug-free medium as a sterility control.
(§8) Incubation and Scoring of MIC: All cultures were incubated without shaking at the temperature used during subculture. Incubation times were 48 hr for Candida spp., S. cerevisiae, A. fumigatus, and Mucor spp; 72 hr for C. neoformans; and 7 days for Microsporum and Trichophyton spp. […]

Aspergillus fumigatus [2] = experiment: Broth microdilution MIC; assay type: cell-based; conditions: Table 1 (MICs), 16 isolates, 48 hr
Procedure: as §1, §4, §5, §6, §7, §8

Mucor spp. [3] = experiment: Broth microdilution MIC; assay type: cell-based; conditions: Table 1 (MICs), 5 isolates, 48 hr
Procedure: as §1, §4, §5, §6, §7, §8

Candida parapsilosis [4] = experiment: Broth microdilution MIC; assay type: cell-based; conditions: Table 1 (MICs), 2 isolates, 48 hr
Procedure: as §1, §4, §5, §6, §7, §8

Candida rugosa [5] = experiment: Broth microdilution MIC; assay type: cell-based
Procedure: as §1, §4, §5, §6, §7, §8

Candida kefyr [6] = experiment: Broth microdilution MIC; assay type: cell-based; conditions: Table 1 (MICs), 1 isolate, 48 hr
Procedure: as §1, §4, §5, §6, §7, §8

Trichophyton spp. [7] = experiment: Broth microdilution MIC; assay type: cell-based; conditions: Table 1 (MICs), 3 isolates, 7 days
Procedure: as §1, §4, §5, §6, §7, §8

Cryptococcus neoformans [8] = experiment: Broth microdilution MIC; assay type: cell-based
Procedure: as §1, §4, §5, §6, §7, §8

Microsporum spp. [9] = experiment: Broth microdilution MIC; assay type: cell-based; conditions: Table 1 (MICs), 2 isolates, 7 days
Procedure: as §1, §4, §5, §6, §7, §8

Candida krusei [10] = experiment: Broth microdilution MIC; assay type: cell-based; conditions: Table 1 (MICs), 2 isolates, 48 hr
Procedure: as §1, §4, §5, §6, §7, §8

Candida tropicalis [11] = experiment: Broth microdilution MIC; assay type: cell-based
Procedure: as §1, §4, §5, §6, §7, §8

Candida lusitaniae [12] = experiment: Broth microdilution MIC; assay type: cell-based; conditions: Table 1 (MICs), 2 isolates, 48 hr
Procedure: as §1, §4, §5, §6, §7, §8

Saccharomyces cerevisiae [13] = experiment: Broth microdilution MIC; assay type: cell-based; conditions: Table 1 (MICs), 1 strain tested more than once (control ATCC 36375), 48 hr
Procedure: as §1, §4, §5, §6, §7, §8

Aspergillus fumigatus [14] = experiment: Minimum Fungicidal Concentration (MFC); assay type: cell-based; conditions: Table 2, 16 isolates, 48 hr
Procedure: as §1, §4, §5, §6, §7, §8

Mucor spp. [15] = experiment: Minimum Fungicidal Concentration (MFC); assay type: cell-based; conditions: Table 2, 5 isolates, 24 hr
Procedure: as §1, §4, §5, §6, §7, §8

Candida parapsilosis [16] = experiment: Minimum Fungicidal Concentration (MFC); assay type: cell-based; conditions: Table 2, 2 isolates, 24 hr
Procedure: as §1, §4, §5, §6, §7, §8

Candida rugosa [17] = experiment: Minimum Fungicidal Concentration (MFC); assay type: cell-based; conditions: Table 2, 2 isolates, 24 hr
Procedure: as §1, §4, §5, §6, §7, §8

Candida kefyr [18] = experiment: Minimum Fungicidal Concentration (MFC); assay type: cell-based; conditions: Table 2, 1 isolate, 24 hr
Procedure: as §1, §4, §5, §6, §7, §8

Trichophyton spp. [19] = experiment: Minimum Fungicidal Concentration (MFC); assay type: cell-based; conditions: Table 2, 3 isolates, 7 d
Procedure: as §1, §4, §5, §6, §7, §8

Cryptococcus neoformans [20] = experiment: Minimum Fungicidal Concentration (MFC); assay type: cell-based; conditions: Table 2, 14 isolates, 48 hr
Procedure: as §1, §4, §5, §6, §7, §8

Microsporum spp. [21] = experiment: Minimum Fungicidal Concentration (MFC); assay type: cell-based; conditions: Table 2, 2 isolates, 7 d
Procedure: as §1, §4, §5, §6, §7, §8

Candida krusei [22] = experiment: Minimum Fungicidal Concentration (MFC); assay type: cell-based; conditions: Table 2, 2 isolates, 24 hr
Procedure: as §1, §4, §5, §6, §7, §8

Candida tropicalis [23] = experiment: Minimum Fungicidal Concentration (MFC); assay type: cell-based; conditions: Table 2, 2 isolates, 24 hr
Procedure: as §1, §4, §5, §6, §7, §8

Candida lusitaniae [24] = experiment: Minimum Fungicidal Concentration (MFC); assay type: cell-based; conditions: Table 2, 2 isolates, 24 hr
Procedure: as §1, §4, §5, §6, §7, §8

Saccharomyces cerevisiae [25] = experiment: Minimum Fungicidal Concentration (MFC); assay type: cell-based; conditions: Table 2, 1 strain tested more than once, 24 hr
Procedure: as §1, §4, §5, §6, §7, §8

fungal isolates = experiment: Fungicidal activity (MFC), fungal isolates overall; assay type: cell-based, fungi; conditions: Table 2 organisms
Procedure: as §1, §4, §2, §3

`C[C@@H]1[C@H](O)[C@@H](C)/C=C/C=C/C=C/C=C/C=C/C=C/C=C/[C@H](O[C@@H]2O[C@H](C)[C@@H](O)[C@H](N)[C@@H]2O)C[C@@H]2O[C@](O)(C[C@@H](O)C[C@@H](O)[C@H](O)CC[C@@H](O)C[C@@H](O)CC(=O)O[C@H]1C)C[C@H](O)[C@H]2C(=O)O` [AmB, amphotericin B, reference compound] was tested, and the “susceptibility (MIC) of the clinical isolates” value [1] was 0.02-1.25 g/ml, the MIC range (Candida albicans) was 0.04 to 0.3 µg/mL and the MIC range (Aspergillus fumigatus [2]) was 0.15 to 1.25 µg/mL. For the same molecule, the MIC range (Mucor spp. [3]) was 0.02 to 0.15 µg/mL, the MIC range (Candida parapsilosis [4]) was 0.6 µg/mL (≈ 0.649 µM) and the MIC range (Candida rugosa [5]; Table 1 (MICs), Candida rugosa, 2 isolates, 48 hr) was 0.3 to 1.25 µg/mL. The “susceptibility of one strain of C. rugosa” value (Candida rugosa [5]; one strain of C. rugosa (AmB-resistant)) was “resistance”, the “MIC (μg/ml) range” value (Candida kefyr [6]) was 0.3 µg/mL (≈ 0.325 µM) and the MIC range (Trichophyton spp. [7]) was 0.3 to 0.6 µg/mL. The MIC range (Cryptococcus neoformans [8]; Table 1 (MICs), Cryptococcus neoformans, 14 isolates, 72 hr) was 0.08 to 1.25 µg/mL, the MIC, one strain of C. neoformans (Cryptococcus neoformans [8]; one strain of C. neoformans, very sensitive to ST-B, somewhat resistant to AmB) was 1.25 µg/mL and the MIC range (Microsporum spp. [9]) was 0.04 to 0.3 µg/mL. For the same molecule, the “MIC (μg/ml) range” value (Candida krusei [10]) was 0.3 to 0.6 µg/mL, the “MIC (μg/ml) range” value (Candida tropicalis [11]; Table 1 (MICs), Candida tropicalis, 2 isolates, 48 hr) was 0.3 to 1.25 µg/mL and the “susceptibility of one strain of C. tropicalis” value (Candida tropicalis [11]; one strain of C. tropicalis) was “resistance”. The MIC range (Candida lusitaniae [12]) was 0.3 µg/mL (≈ 0.325 µM), the “MFC (μg/ml) range” value (Saccharomyces cerevisiae [13]) was 0.3 µg/mL (≈ 0.325 µM) and the “MFC (μg/ml) range” value (Aspergillus fumigatus [14]) was 0.6 to 2.5 µg/mL. For the same molecule, the “MFC (μg/ml) range” value (Mucor spp. [15]) was ≤0.02 to 0.3 µg/mL, the “MFC (μg/ml) range” value (Candida parapsilosis [16]) was 1.25 µg/mL (≈ 1.35 µM) and the “MFC (μg/ml) range” value (Candida rugosa [17]) was 0.6 to 2.5 µg/mL. For the same molecule, the “MFC (μg/ml) range” value (Candida kefyr [18]) was 0.3 µg/mL (≈ 0.325 µM), the “MFC (μg/ml) range” value (Trichophyton spp. [19]) was 0.3 to 0.6 µg/mL and the “MFC (μg/ml) range” value (Cryptococcus neoformans [20]) was 0.15 to 1.25 µg/mL. For the same molecule, the “MFC (μg/ml) range” value (Microsporum spp. [21]) was 0.08 to 0.3 µg/mL, the “MFC (μg/ml) range” value (Candida krusei [22]) was 0.6 µg/mL (≈ 0.649 µM) and the “MFC (μg/ml) range” value (Candida tropicalis [23]) was 0.6 to 1.25 µg/mL. The “MFC (μg/ml) range” value (Candida lusitaniae [24]) was 0.6 µg/mL (≈ 0.649 µM), the “MFC (μg/ml) range” value (Saccharomyces cerevisiae [25]) was 1.25 µg/mL (≈ 1.35 µM) and the “fungicidal activity” value (fungal isolates) was “fungicidal activity against most of the strains tested”.
